Legend:
Type in all cases: biochemical
KRAS G12D = target: T1, KRAS G12D (Homo sapiens, UniProt P01116, G12D); test: HTRF assay, KRAS G12D interaction with SOS1; conditions: bins <500 nM / 500 nM to 1000 nM, read-out: Inhibition of KRAS G12D (IC50)
T1 construct: made in house; host or cells: E. coli, e.g. BL21 (DE3)
Source text: (§1) This assay can be also used to assess a selective inhibition or reduction of signaling output of a mutant Ras protein relative to a wildtype, or relative to a different mutant Ras protein. For example, the equilibrium interaction of wildtype KRAS or K-Ras mutant (e.g., wildtype or a mutant thereof) with SOS1 (e.g., hSOS1) can be assessed as a proxy or an indication for the ability of a subject compound to bind and inhibit Ras protein. The HTRF assay detects from (i) a fluorescence resonance energy transfer (FRET) donor (e.g., antiGST-Europium) that is bound to GST-tagged K-Ras mutant to (ii) a FRET acceptor (e.g., anti-6His-XL665) bound to a His-tagged hSOSL1.
(§2) The assay buffer can contain ~5 mM HEPES pH 7.4, ~150 mM NaCl, ~1 mM DTT, 0.05% BSA and 0.0025% (v/v) Igepal. A Ras working solution is prepared in an assay buffer containing typically a suitable amount of the protein construct (e.g., GST-tagged K-Ras mutant) and the FRET donor (e.g., antiGST-Eu(K) from Cisbio, France). A SOS1 working solution is prepared in an assay buffer containing suitable amount of the protein construct (e.g., His-hSOS1) and the FRET acceptor (e.g., anti-6His-XL665 from Cisbio, France). A suitable amount of the protein construct will depend on the range of activity or range of IC50 values being detected or under investigation. For detecting an IC50 within a range of 500 nM, the protein constructs of the same range of molarity can be utilized.
(§3) A fixed volume of DMSO with or without test compound is transferred into a 384-well plate. Ras working solution is added to all wells of the test plate. SOS1 working solution is added to all wells except for those that are subsequently filled with inhibitor control solution. Upon incubation for about 10 minutes or longer, the fluorescence is measured with a M1000Pro plate reader (Tecan) using HTRF detection (excitation 337 nm, emission 1: 620 nm, emission 2: 665 nm). Compounds are tested in duplicate at different concentrations (for example, 10 μM, 2.5 μM, 0.63 μM, 0.16 μM, 0.04 μM, 0.01 μM test compound). The ratiometric data (i.e., emission 2 divided by emission 1) is used to calculate IC50 values against Ras using GraphPad Prism (GraphPad software). Signaling output measured in terms of IC50 values can be obtained and a ratio of IC50 against one mutant relative to another mutant can be calculated. For instance, a selective reduction of K-Ras G12S signaling output can be evidenced by a ratio greater than one. In particular, a selective reduction of K-Ras G12S signaling relative to K-Ras WT signaling is evidenced if the ratio of IC50 (against K-Ras WT) to IC50 (against K-Ras G12S) is greater than 1.

KRAS G12S = target: T2, KRAS G12S (Homo sapiens, UniProt P01116, G12S); test: HTRF assay, KRAS G12S interaction with SOS1; conditions: bins <500 nM / 500 nM to 1000 nM, read-out: Inhibition of KRAS G12S (IC50)
T2 construct: made in house; host or cells: E. coli, e.g. BL21 (DE3)
Source text: as §1, §2, §3

KRAS WT = target: T3, KRAS WT (Homo sapiens, UniProt P01116); test: HTRF assay, wildtype KRAS interaction with SOS1; conditions: bins <500 nM / 500 nM to 1000 nM, read-out: Inhibition of KRAS WT (IC50)
T3 construct: made in house; host or cells: E. coli, e.g. BL21 (DE3)
Source text: as §1, §2, §3

KRAS G12V = target: T4, KRAS G12V (Homo sapiens, UniProt P01116, G12V); test: HTRF assay, KRAS G12V interaction with SOS1; conditions: bins <500 nM / 500 nM to 1000 nM, read-out: Inhibition of KRAS G12V (IC50)
T4 construct: made in house; host or cells: E. coli, e.g. BL21 (DE3)
Source text: as §1, §2, §3

T1 sequence (P01116 1-188 isoform P01116-2 G12D): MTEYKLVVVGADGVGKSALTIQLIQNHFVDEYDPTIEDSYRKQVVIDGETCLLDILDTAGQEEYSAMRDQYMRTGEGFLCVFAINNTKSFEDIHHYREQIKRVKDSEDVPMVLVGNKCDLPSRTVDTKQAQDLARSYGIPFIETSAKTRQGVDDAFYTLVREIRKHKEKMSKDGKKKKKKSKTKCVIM
T3 sequence (P01116 1-188 isoform P01116-2): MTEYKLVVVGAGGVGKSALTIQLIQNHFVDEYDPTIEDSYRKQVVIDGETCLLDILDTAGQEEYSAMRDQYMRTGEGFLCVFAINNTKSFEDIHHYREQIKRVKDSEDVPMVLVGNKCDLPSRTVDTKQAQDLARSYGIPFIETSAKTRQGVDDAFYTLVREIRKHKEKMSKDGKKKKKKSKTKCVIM
T2 sequence (P01116 1-188 isoform P01116-2 G12S): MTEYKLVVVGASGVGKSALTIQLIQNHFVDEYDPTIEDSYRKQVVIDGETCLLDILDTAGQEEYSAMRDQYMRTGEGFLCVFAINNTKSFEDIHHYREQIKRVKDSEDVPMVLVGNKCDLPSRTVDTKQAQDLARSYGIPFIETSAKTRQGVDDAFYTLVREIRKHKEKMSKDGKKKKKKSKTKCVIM
T4 sequence (P01116 1-188 isoform P01116-2 G12V): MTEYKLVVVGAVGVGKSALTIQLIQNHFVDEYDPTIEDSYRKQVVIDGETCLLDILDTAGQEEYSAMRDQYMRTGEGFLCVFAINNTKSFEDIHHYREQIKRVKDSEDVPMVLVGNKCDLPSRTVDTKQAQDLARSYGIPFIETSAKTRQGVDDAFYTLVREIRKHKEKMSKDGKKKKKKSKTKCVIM

| IC50 (KRAS G12D) [nM] | IC50 (KRAS G12S) [nM] | IC50 (KRAS WT) [nM] | IC50 (KRAS G12V) [nM] | Compound |
| --- | --- | --- | --- | --- |
| < 500 | < 500 | < 500 | < 500 | CCN(c1nc(OC[C@@]23CCCN2C[C@H](F)C3)nc2c(F)c(-c3ccc(F)c4sc(N)c(C#N)c34)c(C3CC3)cc12)[C@@H]1CCN(C(=O)n2cc(C)nc2C)[C@@H]1C (atropisomer, axis not shown; (aS)) [Compound 190, (S)-2-amino-4-(6-cyclopropyl-4-(((2R,3R)-1-(2,4-dimethyl-1H-imidazole-1-carbonyl)-2-methylpyrrolidin-3-yl)(ethyl)amino)-8-fluoro-2-(((2R,7aS)-2-fluorotetrahydro-1H-pyrrolizin-7a(5H)-yl)methoxy)quinazolin-7-yl)-7-fluorobenzo[b]thiophene-3-carbonitrile] |
| < 500 | < 500 | < 500 | < 500 | CN(c1nc(OC[C@@]23CCCN2C[C@H](F)C3)nc2c(F)c(-c3ccc(F)c4sc(N)c(C#N)c34)c(Cl)cc12)C1CN(C(=O)n2ccnc2)CC1F (single isomer, unassigned) [Compound 191] |
| < 500 | < 500 | < 500 | < 500 | Cc1cn(C(=O)N2CC[C@@H](N(C)c3nc(OC[C@@]45CCCN4C[C@H](F)C5)nc4c(F)c(-c5ccc(F)c6sc(N)c(C#N)c56)c(Cl)cc34)[C@H]2C)c(C)n1 [Compound 105, 2-amino-4-(6-chloro-4-(((2R,3R)-1-(2,4-dimethyl-1H-imidazole-1-carbonyl)-2-methylpyrrolidin-3-yl)(methyl)amino)-8-fluoro-2-(((2R,7aS)-2-fluorotetrahydro-1H-pyrrolizin-7a(5H)-yl)methoxy)quinazolin-7-yl)-7-fluorobenzo[b]thiophene-3-carbonitrile] |
| < 500 | < 500 | < 500 | < 500 | CCN(c1nc(OC[C@@]23CCCN2C[C@H](F)C3)nc2c(F)c(-c3cccc4sc(N)c(C#N)c34)c(Cl)cc12)[C@@H]1CCN(C(=O)n2cc(C#N)nc2C)[C@@H]1C [Compound 113, 1-((2R,3R)-3-((7-(2-amino-3-cyanobenzo[b]thiophen-4-yl)-6-chloro-8-fluoro-2-(((2R,7aS)-2-fluorotetrahydro-1H-pyrrolizin-7a(5H)-yl)methoxy)quinazolin-4-yl)(ethyl)amino)-2-methylpyrrolidine-1-carbonyl)-2-methyl-1H-imidazole-4-carbonitrile] |
| < 500 | < 500 | < 500 | < 500 | Cc1ncn(C(=O)N2C[C@H]3[C@@H]2CCCN3c2nc(OC[C@]34CCCN3C[C@@H](F)C4)nc3c(F)c(-c4ccc(F)c5sc(N)c(C#N)c45)c(Cl)cc23)c1C [Compound 129, 2-amino-4-(6-chloro-4-((1S,6S)-7-(4,5-dimethyl-1H-imidazole-1-carbonyl)-2,7-diazabicyclo[4.2.0]octan-2-yl)-8-fluoro-2-(((2S,7aR)-2-fluorotetrahydro-1H-pyrrolizin-7a(5H)-yl)methoxy)quinazolin-7-yl)-7-fluorobenzo[b]thiophene-3-carbonitrile] |
| < 500 | < 500 | < 500 | < 500 | CCN(c1nc(OC[C@@]23CCCN2C[C@H](F)C3)nc2c(F)c(-c3ccc(F)c4sc(N)c(C#N)c34)c(Cl)cc12)[C@@H]1CCN(C(=O)n2cnc3c2CCC3)[C@@H]1C [Compound 132, 2-amino-4-(6-chloro-4-(ethyl((2R,3R)-2-methyl-1-(1,4,5,6-tetrahydrocyclopenta[d]imidazole-1-carbonyl)pyrrolidin-3-yl)amino)-8-fluoro-2-(((2R,7aS)-2-fluorotetrahydro-1H-pyrrolizin-7a(5H)-yl)methoxy)quinazolin-7-yl)-7-fluorobenzo[b]thiophene-3-carbonitrile] |
| < 500 | < 500 | < 500 | < 500 | CC1CC(N(C)c2nc(OC[C@@]34CCCN3C[C@H](F)C4)nc3c(F)c(-c4ccc(F)c5sc(N)c(C#N)c45)c(Cl)cc23)CN1C(=O)n1cnc(F)n1 (stereo partly drawn) [Compound 146, 2-amino-4-(6-chloro-8-fluoro-4-((1-(3-fluoro-1H-1,2,4-triazole-1-carbonyl)-5-methylpyrrolidin-3-yl)(methyl)amino)-2-(((2R,7aS)-2-fluorotetrahydro-1H-pyrrolizin-7a(5H)-yl)methoxy)quinazolin-7-yl)-7-fluorobenzo[b]thiophene-3-carbonitrile] |
|  | < 500 | < 500 | < 500 | CC1CC(N(C)c2nc(OC[C@@]34CCCN3C[C@H](F)C4)nc3c(F)c(-c4ccc(F)c5sc(N)c(C#N)c45)c(Cl)cc23)CCN1C(=O)n1ccnc1 (stereo partly drawn) [Compound 153, 4-(4-((1-(1H-imidazole-1-carbonyl)-2-methylpiperidin-4-yl)(methyl)amino)-6-chloro-8-fluoro-2-(((2R,7aS)-2-fluorotetrahydro-1H-pyrrolizin-7a(5H)-yl)methoxy)quinazolin-7-yl)-2-amino-7-fluorobenzo[b]thiophene-3-carbonitrile] |
| < 500 | < 500 | < 500 | < 500 | COCC1([C@H]2N(C(=O)n3cnc(C)c3)C[C@]23CCCCN(c2nc(OC[C@@]45CCCN4C[C@H](F)C5)nc4c(F)c(-c5ccc(F)c6sc(N)c(C#N)c56)c(Cl)cc24)C3)CC1 [Compound 203, 2-amino-4-(6-chloro-8-fluoro-2-(((2R,7aS)-2-fluorotetrahydro-1H-pyrrolizin-7a(5H)-yl)methoxy)-4-((1S,4R)-1-(1-(methoxymethyl)cyclopropyl)-2-(4-methyl-1H-imidazole-1-carbonyl)-2,6-diazaspiro[3.6]decan-6-yl)quinazolin-7-yl)-7-fluorobenzo[b]thiophene-3-carbonitrile] |
| < 500 | < 500 | < 500 | < 500 | Cc1ncn(C(=O)N2CC3CCCN(c4nc(OC[C@@]56CCCN5C[C@H](F)C6)nc5c(F)c(-c6ccc(F)c7sc(N)c(C#N)c67)c(Cl)cc45)C3C2)c1C (stereo partly drawn) [Compound 206, 2-amino-4-(6-chloro-4-(6-(4,5-dimethyl-1H-imidazole-1-carbonyl)octahydro-1H-pyrrolo[3,4-b]pyridin-1-yl)-8-fluoro-2-(((2R,7aS)-2-fluorotetrahydro-1H-pyrrolizin-7a(5H)-yl)methoxy)quinazolin-7-yl)-7-fluorobenzo[b]thiophene-3-carbonitrile] |
| < 500 | < 500 | < 500 | < 500 | Cc1cn(C(=O)N2C[C@]3(CCCCN(c4nc(OC[C@@]56CCCN5C[C@H](F)C6)nc5c(F)c(-c6ccc(F)c7sc(N)c(C#N)c67)c(Cl)cc45)C3)[C@H]2C2(C)CC2)cn1 [Compound 207, 2-amino-4-(6-chloro-8-fluoro-2-(((2R,7aS)-2-fluorotetrahydro-1H-pyrrolizin-7a(5H)-yl)methoxy)-4-((1R,4R)-2-(4-methyl-1H-imidazole-1-carbonyl)-1-(1-methylcyclopropyl)-2,6-diazaspiro[3.6]decan-6-yl)quinazolin-7-yl)-7-fluorobenzo[b]thiophene-3-carbonitrile] |

Source: US20260217735A1, “HETEROCYCLES AND USES THEREOF” (Kumquat Biosciences Inc., priority 2023, published 2026)
